Experiments:
[1] = biological target: T1, cloned human CRF-R1 receptors (Homo sapiens, UniProt P34998); experiment: CRF-R1 receptor binding assay (inhibition of 125I-ovine-CRF binding to cell membranes); conditions: membranes of 293EBNA cells transfected with hCRFR1, class d = reported as percent inhibition at 10 μM, figures not given, read-out: activity (Ki class in the CRF assays)
T1 construct: the coding region was amplifies by PCR from start to stop codons; expressed in transfected cells; membranes
T1 sequence (P34998 24-415): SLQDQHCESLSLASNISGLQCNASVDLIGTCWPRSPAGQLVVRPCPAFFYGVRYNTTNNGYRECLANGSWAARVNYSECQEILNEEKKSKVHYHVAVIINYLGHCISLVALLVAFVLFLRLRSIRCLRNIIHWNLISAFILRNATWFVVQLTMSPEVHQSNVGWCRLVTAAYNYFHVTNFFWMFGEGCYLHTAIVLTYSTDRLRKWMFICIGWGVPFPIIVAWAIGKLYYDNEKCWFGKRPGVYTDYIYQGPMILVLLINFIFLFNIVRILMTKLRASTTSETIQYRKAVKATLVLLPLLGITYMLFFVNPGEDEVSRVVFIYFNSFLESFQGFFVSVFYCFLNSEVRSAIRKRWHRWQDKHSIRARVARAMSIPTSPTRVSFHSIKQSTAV
Summary of the method: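 Membranes from hygromycin-selected 293EBNA cells expressing human CRF-R1 were incubated for 2 h at room temperature with 150 pM 125I-ovine-CRF and test drug at 10^−10–10^−5 M final, in pH 7.0 HEPES buffer with MgCl2 and EGTA. Bound ligand was collected by filtration and gamma-counted, and Ki values were derived by iterative curve fitting.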

For CCc1ccc(S(=O)(=O)c2ccc(C)nc2Nc2ccc(OC)cc2Cl)cc1 [Example 69, (2-Chloro-4-methoxyphenyl)-[3-(4-ethylbenzenesulfonyl)-6-methylpyridin-2-yl]-amine], which Ki [1] is on record?
Its Ki is 100 to 500 nM.

And the melting point?
The melting point was 110 to 112 °C.

Reference: patent US7030145B2, “Pyridinyl derivatives for the treatment of depression” (Bristol-Myers Squibb Company, priority 2003, dated 2006)
